In the data set the test system is liver function. As to the kind of experiment: breath test: oral 13C-phenylalanine, labeled CO2 in expired breath. It is filed as in vivo, patient. The note with it: 100 mg oral; for maximum percent dose oxidized within 10 minutes / cumulative percent dose oxidized: group mean; for cumulative percent dose oxidized: 1 hr; for Max. % Dose Oxidized/10 min. / Cumulative 1 hr % Dose Oxidized: overnight fast; for Max. % Dose Oxidized/10 min.: breath every ten minutes for one hour; for Cumulative 1 hr % Dose Oxidized: over one hour. The text has this:
All of the participants in the test are first required to fast overnight. This minimizes metabolic effects of meal absorption and the contribution of endogenous label appearing in the breath from natural levels of the endogenous isotope in the diet. While the preferred isotope for use in the test is ^13 C, other carbon isotopes (or even nitrogen isotopes) could be used. At least two baseline breath samples are collected and the mean isotope value in these samples is used as a background. This background is subtracted from the ^13 C levels determined following isotopic administration in order to obtain the change in ^13 C level.
All breath samples, both those collected prior to administration of the isotope and those after administration, are collected with a commercially available breath sampler such as a Quintron AlveoSampler. These samplers have a mouthpiece and a collection bag with a one-way valve there between. The breath samples are trapped in a syringe and the contents of the syringe are injected into a […] evacuation tube such as a Exetainer tube.
In the preferred mode of the invention, ^13 C-phenylalanine is used as the isotope tracer. One hundred mg doses of L-1-^13 C-phenylalanine are dissolved in 50 ml of water and the dose is administered orally. The dose bottle is washed with another 50ml of water and the wash is administered to the patient to make sure that all the phenylalanine was released from the dose bottle. Although intravenous or intramuscular administration of the isotope tracer could be used, the oral dose acts sufficiently and is much easier to administer.
Breath samples are collected every ten minutes for one hour after dosage. The amount of labeled isotope is measured using an isotope ratio mass spectrometer such a Europa Scientific Gas Isotope Ratio Mass Spectrometer (Europa Scientific, Inc., Cincinnati, Ohio). The ratio of ^13 C-CO2 to ^12 C-CO2 (mass ratio 45:44) is measured and compared to a reference CO2 tank. The reference CO2 is calibrated to the international PDB standard and the amount of labeled ^13 C is determined by the following formula
The mean Atom % ^13 C values are subtracted to determine the Atom % Excess ^13 C. The % Dose Oxid (or percent dose oxidized) is calculated from formulas 2 and 3.
Total ^13 C Excreted[…]%^13 C(from AUC)×5×(time in
min.)×Body Surface Area (m^2) (2)
% Dose Oxid=Total ^13 C Excreted/Dose (mmoles)×100% (3)
Two groups of subjects were used to test the efficacy of the present system. The first group contained 16 normal subjects while the second had 12 patients with various levels of liver disease.

Setting [1] is: 12 patients with liver disease, P<0.05 vs control.
[2] abbreviates: control group, 16 normal subjects, P<0.05 vs patients.
[3] abbreviates: individual control (normal) subjects 1-16.
The mark [4] stands for this setting: individual patients 17-28 with liver disease.

“And” between values parts separate entries of the source, which are not always exact repeats. Identical values can stand only once.

With `N[C@@H](Cc1ccccc1)[13C](=O)O` [L-1-^13 C-phenylalanine], under setting [1], the “maximum percent dose oxidized within 10 minutes” value is on record as 0.50±0.27% and the “cumulative percent dose oxidized” value worked out at 1.82±0.93%. Besides, under setting [2], the “maximum percent dose oxidized within 10 minutes” value stood at 2.15±0.84% and the “cumulative percent dose oxidized” value worked out at 7.62±2.87%. Moreover, under setting [3], the “Max. % Dose Oxidized/10 min.” value was 2.46% and 4.53% and 1.48% and 1.57% and 2.81% and 2.82% and 1.20% and 2.31% and 1.05% and 1.65% and 2.19% and 2.37% and 2.60% and 2.11% and 1.75%; the “Cumulative 1 hr % Dose Oxidized” value was 8.56% and 15.53% and 3.96% and 6.52% and 7.14% and 9.86% and 11.12% and 3.78% and 7.34% and 4.44% and 6.21% and 7.78% and 7.71% and 7.50% and 7.57% and 6.83%. For the same compound, under setting [4], the “Max. % Dose Oxidized/10 min.” value was 0.43% and 0.62% and 0.36% and 0.93% and 0.49% and 0.17% and 0.38% and 0.58% and 1.09% and 0.46%; the “Cumulative 1 hr % Dose Oxidized” value is 2.16% and 2.81% and 1.25% and 2.00% and 1.59% and 0.51% and 1.29% and 1.46% and 0.61% and 2.22% and 3.88% and 2.02%.

The record behind these values is patent US5386832A, “Liver function breath test using aromatic amino acids” (New England Deaconess Hospital, priority 1993, dated 1995).
